According to ChEMBL document CHEMBL5532652, “Design and synthesis of pterostilbene derivatives bearing triazole moiety that might treat DSS-induced colitis in mice through modulation of NF-κB/MAPK signaling pathways” (Eur J Med Chem, 2024):

What was measured:
RAW264.7 [1] = experiment: Cytotoxicity against mouse RAW264.7 cells assessed as reduction in cell viability at 20 uM incubated for 24 hrs by MTT assay; type: toxicity, cell-based; conditions: raw264.7, 24 h
[2] = Cytotoxicity against mouse RAW264.7 cells assessed as reduction in cell viability at 20 uM incubated for 24 hrs in presence of LPS by MTT assay; type: toxicity, cell-based
[3] = Cytotoxicity against mouse RAW264.7 cells assessed as reduction in cell viability at 20 uM incubated for 24 hrs in absence of LPS by MTT assay; type: toxicity, cell-based
RAW264.7 [4] = experiment: Anti-inflammatory activity in mouse RAW264.7 cells assessed as inhibition of LPS-induced NO production at 10 uM incubated pretreated with compound for 1 hr followed by LPS-induction and measured after 24 hrs by Griess reagent based assay relative to control; type: functional; conditions: time 25 hrs
RAW264.7 [5] = experiment: Anti-inflammatory activity in mouse RAW264.7 cells assessed as inhibition of LPS-induced NO production incubated pretreated with compound for 1 hr followed by LPS-induction and measured after 24 hrs by Griess reagent based assay; type: functional, cell-based
[6] = Toxicity in C57BL/6 mouse assessed as body weight loss at 200 mg/kg, po measured for 7 days; type: organism-based; conditions: in vivo, 168 h, time 7 day

Row | SMILES | Activity (RAW264.7 [1]) | IC50 at 24 h [2] | IC50 at 24 h [3] | inhibition at 10 µM (RAW264.7 [4]) | IC50 (RAW264.7 [5]) | Activity [6]
1 | COc1cc(/C=C/c2ccc(OCc3cc(F)cc(F)c3)cc2)c(-c2cnn[nH]2)c(OC)c1 | Non-Toxic | – | – | – | – | –
2 | COc1cc(/C=C/c2ccc(OCCc3ccccc3)cc2)c(-c2cnn[nH]2)c(OC)c1 | Non-Toxic | – | – | – | – | –
3 | C=CCCOc1ccc(/C=C/c2cc(OC)cc(OC)c2-c2cnnn2C(=O)NCC)cc1 | – | > 50 µM | > 50 µM | 46.3% | 13.4 µM | –
4 | C=CCCOc1ccc(/C=C/c2cc(OC)cc(OC)c2-c2cnnn2C(=O)NC(C)C)cc1 | – | > 50 µM | > 50 µM | 61.3% | 7.91 µM | –
5 | CCOC(=O)COc1ccc(/C=C/c2cc(OC)cc(OC)c2-c2cnn[nH]2)cc1 | Non-Toxic | – | – | – | – | –
6 | C=CCCOc1ccc(/C=C/c2cc(OC)cc(OC)c2-c2cnnn2C(=O)NCCc2ccccc2)cc1 | – | > 50 µM | > 50 µM | 64.6% | 9.46 µM | –
7 | COCCCCOc1ccc(/C=C/c2cc(OC)cc(OC)c2-c2cnn[nH]2)cc1 | Non-Toxic | – | – | – | – | –
8 | COc1cc(/C=C/c2ccc(OCc3ccc(C)cc3)cc2)c(-c2cnn[nH]2)c(OC)c1 | Non-Toxic | – | – | – | – | –
9 | CCCCOc1ccc(/C=C/c2cc(OC)cc(OC)c2-c2cnn[nH]2)cc1 | Non-Toxic | – | – | – | – | –
10 | CCOCCOc1ccc(/C=C/c2cc(OC)cc(OC)c2-c2cnn[nH]2)cc1 | Non-Toxic | – | – | – | – | –
11 | C=CCCCOc1ccc(/C=C/c2cc(OC)cc(OC)c2-c2cnnn2C(=O)NCC)cc1 | – | > 50 µM | > 50 µM | 49.6% | 12.3 µM | –
12 | COc1cc(/C=C/c2ccc(OCC3CCCC3)cc2)c(-c2cnn[nH]2)c(OC)c1 | Non-Toxic | – | – | – | – | –
13 | C=CCOc1ccc(/C=C/c2cc(OC)cc(OC)c2-c2cnnn2C(=O)NCC)cc1 | – | > 50 µM | > 50 µM | 67.3% | 8.16 µM | –
14 | C=CCCCOc1ccc(/C=C/c2cc(OC)cc(OC)c2-c2cnn[nH]2)cc1 | Non-Toxic | > 50 µM | > 50 µM | 62.2% | 6.18 µM | –
15 | COc1cc(/C=C/c2ccc(OCC3CC3)cc2)c(-c2cnn[nH]2)c(OC)c1 | Non-Toxic | – | – | – | – | –
16 | C=C(C)COc1ccc(/C=C/c2cc(OC)cc(OC)c2-c2cnnn2C(=O)NCC)cc1 | – | > 50 µM | > 50 µM | 43.6% | 15.2 µM | –
17 | C=CCCCOc1ccc(/C=C/c2cc(OC)cc(OC)c2-c2cnnn2C(=O)NCCCC)cc1 | – | > 50 µM | > 50 µM | 60% | 8.66 µM | –
18 | COc1cc(/C=C/c2ccc(OCc3ccc(Br)cc3)cc2)c(-c2cnn[nH]2)c(OC)c1 | Non-Toxic | – | – | – | – | –
19 | C=CCOc1ccc(/C=C/c2cc(OC)cc(OC)c2-c2cnnn2C(=O)NC(C)C)cc1 | – | > 50 µM | > 50 µM | 75% | 8 µM | –
20 | COc1cc(/C=C/c2ccc(OC(=O)N(C)C)cc2)c(-c2cnn[nH]2)c(OC)c1 | Non-Toxic | – | – | – | – | –
21 | C=C(C)COc1ccc(/C=C/c2cc(OC)cc(OC)c2-c2cnnn2C(=O)NC(C)C)cc1 | – | > 50 µM | > 50 µM | 48.2% | 16 µM | –

Row | SMILES | Activity (RAW264.7 [1]) | IC50 at 24 h [2] | IC50 at 24 h [3] | inhibition at 10 µM (RAW264.7 [4]) | IC50 (RAW264.7 [5]) | Activity [6]
22 | CCOc1ccc(/C=C/c2cc(OC)cc(OC)c2-c2cnn[nH]2)cc1 | Non-Toxic | – | – | – | – | –
23 | C=CCCOc1ccc(/C=C/c2cc(OC)cc(OC)c2-c2cnnn2C(=O)NCCC)cc1 | – | > 50 µM | > 50 µM | 72.7% | 3.15 µM | –
24 | C=CCOc1ccc(/C=C/c2cc(OC)cc(OC)c2-c2cnnn2C(=O)NCCC)cc1 | – | > 50 µM | > 50 µM | 81.1% | 2.6 µM | –
25 | C=CCOc1ccc(/C=C/c2cc(OC)cc(OC)c2-c2cnnn2C(=O)NCCCC)cc1 | – | > 50 µM | > 50 µM | 50% | 11.7 µM | –
26 | C=CCCCOc1ccc(/C=C/c2cc(OC)cc(OC)c2-c2cnnn2C(=O)NCCC)cc1 | – | > 50 µM | > 50 µM | 55.5% | 6.2 µM | –
27 | C=C(C)COc1ccc(/C=C/c2cc(OC)cc(OC)c2-c2cnnn2C(=O)NCCCC)cc1 | – | > 50 µM | > 50 µM | 54.6% | 12.8 µM | –
28 | C=CCCCOc1ccc(/C=C/c2cc(OC)cc(OC)c2-c2cnnn2C(=O)NCCc2ccccc2)cc1 | – | > 50 µM | > 50 µM | 67.8% | 6.5 µM | –
29 | O=C(O)c1cc(/N=N/c2ccc(S(=O)(=O)Nc3ccccn3)cc2)ccc1O [SULFASALAZINE] | – | – | – | – | – | Non-Toxic
30 | C=CCCOc1ccc(/C=C/c2cc(OC)cc(OC)c2-c2cnnn2C(=O)NCCCC)cc1 | – | > 50 µM | > 50 µM | 50.6% | 10.4 µM | –
31 | COc1ccc(/C=C/c2cc(OC)cc(OC)c2-c2cnn[nH]2)cc1 | Non-Toxic | – | – | – | – | –
32 | C=CCOc1ccc(/C=C/c2cc(OC)cc(OC)c2-c2cnnn2C(=O)NCCc2ccccc2)cc1 | – | > 50 µM | > 50 µM | 45.3% | 14 µM | –
33 | C=C(C)COc1ccc(/C=C/c2cc(OC)cc(OC)c2-c2cnnn2C(=O)NCCc2ccccc2)cc1 | – | > 50 µM | > 50 µM | 42.6% | 14.9 µM | –
34 | C=C(C)COc1ccc(/C=C/c2cc(OC)cc(OC)c2-c2cnnn2C(=O)NCCC)cc1 | – | > 50 µM | > 50 µM | 77.5% | 6.2 µM | –
35 | C=CCCCOc1ccc(/C=C/c2cc(OC)cc(OC)c2-c2cnnn2C(=O)NCCCl)cc1 | – | > 50 µM | > 50 µM | 85.9% | 2 µM | –
36 | C=CCOc1ccc(/C=C/c2cc(OC)cc(OC)c2-c2cnn[nH]2)cc1 | Non-Toxic | > 50 µM | > 50 µM | 53.7% | 10.8 µM | –
37 | C=CCCOc1ccc(/C=C/c2cc(OC)cc(OC)c2-c2cnn[nH]2)cc1 | Non-Toxic | > 50 µM | > 50 µM | 46.9% | 14.4 µM | –
38 | C=C(C)COc1ccc(/C=C/c2cc(OC)cc(OC)c2-c2cnn[nH]2)cc1 | Non-Toxic | > 50 µM | > 50 µM | 74.2% | 7.15 µM | –
39 | C=CCCCOc1ccc(/C=C/c2cc(OC)cc(OC)c2-c2cnnn2C(=O)NC(C)C)cc1 | – | > 50 µM | > 50 µM | 53.4% | 9.83 µM | –
40 | C=CCCOc1ccc(/C=C/c2cc(OC)cc(OC)c2-c2cnnn2C(=O)NCCCl)cc1 | – | > 50 µM | > 50 µM | 96.9% | 1.4 µM | –
41 | COc1cc(/C=C/c2ccc(OCc3ccc(OC(F)(F)F)cc3)cc2)c(-c2cnn[nH]2)c(OC)c1 | Non-Toxic | – | – | – | – | –
